We go through one compound from patent US20200129499A1, “COMBINATION OF TASQUINIMOD OR A PHARMACEUTICALLY ACCEPTABLE SALT THEREOF AND A PD-1 AND/OR PD-L1 INHIBITOR, FOR USE AS A MEDICAMENT” (ACTIVE BIOTECH AB, priority 2015, published 2020).

In one assay the test system is CD8+ T cells. The assay can be described thus: Ex vivo T cell proliferation assay with tumor-derived CD11b+ cells. The assay is classed as cell-based, mouse. The conditions noted are these: CD11b+ from treated established tumors co-cultured 1:1 with T cells, 72 h; FIGS. 8A and B. An excerpt: FIG. 7: Combination of tasquinimod with Anti-PD-L1 increases cytotoxic T cell activity. (A) Quantitative data of the percentage of tumor-infiltrating CD8+ cells on day 15 after treatment (n=6). (B) Left panel: Representative images showing immunostaining for granzyme B (brown staining) in tumors from control or treated groups. Original magnification: X200, inset: tumor overview. Scale bar: 5θ μm. Right panel: Quantification of granzyme B positive cells on tumor sections expressed as a percentage of total cells using an antibody against granzyme B (Kruskal-Wallis test; *, P=0.0326). (C) The concentration levels (pg/ml) of the following cytokines: IL-1β, IL-7, IL-1 2(p70) and IL-15 in tumor lysate from each group were quantified using Luminex Technology (n=5). (D) Splenocytes (n=5) from each group were stimulated with PMA/ionomycin in the presence of Brefeldin A. IL-2, TNF-a and IFN-γ production was examined by intracellular staining. […] Asterisks denote statistical significance using one-way ANOVA (*, P<0.05; **, P<0.005). […] P values were calculated based on Kruskal-Wallis test between the different groups (*, P<0.05; **, P<0.005). […] (A) Representative histograms obtained by FACS analysis showing the fluorescence intensity of CFSE-T cells gated on CD8+. […] (C) IFN-γ secretion in the supernatant of the co-culture is measured 72 hours following incubation at 37° C. using Luminex Technology. […]

In another assay the test system is MBT-2 tumor cells. Put plainly: Survival in orthotopic MBT-2 bladder tumor model. It counts as in vivo, mouse. The conditions noted are these: tasquinimod 30 mg/kg twice a day 21 days; Anti-PD1 10 mg/kg i.p. twice weekly; control 29 days; FIG. 9. As to the method:
FIG. 9: MBT-2 tumor cells were injected orthotopically into female C3H/HeJ mice. Briefly, after a period of 4-hour of water deprivation, mice were anaesthetized using a mix of Ketamine and Xylazine. A catheter (ref: 381212 24G, BD Insyte) was inserted in the bladder through the urethra and 30 μI 0.1 N HCl was injected for 15 seconds, then replaced by 30 μI 0.1 N NaOH for 15 seconds. MBT-2 tumor cells (2×1 06) were instilled into the bladder for 45 minutes. The treatment was initiated at day 3. Tasquinimod was given at the dose of 30 mg/kg by oral gavage twice a day for 21 consecutive days. Anti-PD1 (clone: RMP1-14) or its isotype control (clone 2A3) was injected by intraperitoneal route at the dose of 10 mg/kg twice weekly for two consecutive weeks (at D4, D7, D11 and D14). The survival of MBT-2 tumor-bearing mice treated with anti-PD1, tasquinimod, the combination, or IgG control are shown in FIG. 9 (n=13). Dunnet-Hsu test was used to compare overall survival between groups.

For a further assay, the system named is PD-1. Put plainly: PD-1 expression level after tasquinimod treatment (data not shown). The assay is classed as in vivo, mouse. The conditions noted are these: established MBT-2 tumors.

Structures are written as SMILES.

Consider `COc1cccc2c1c(O)c(C(=O)N(C)c1ccc(C(F)(F)F)cc1)c(=O)n2C` [tasquinimod, 4-hydroxy-5-methoxy-N,1-dimethyl-2-oxo-N-[4-(trifluoromethyl)phenyl]-1,2-dihydroquinoline-3-carboxamide], for which the “proliferation of stimulated CD8+ T cells ex vivo” value in the assay with CD8+ T cells is “limited ability”. In addition, in the assay on MBT-2 tumor cells, the “median survival of mice” value came out at 27 days. Further, the “expression level of PD-1” value in the assay with PD-1 is “not changed”.
